The text below walks through data of ChEMBL document CHEMBL4393697, “Lipophilic efficient phenylthiazoles with potent undecaprenyl pyrophosphatase inhibitory activity” (Eur J Med Chem, 2019).

Converted amounts (≈) assume the structure as drawn.

For one series, the system named is Staphylococcus aureus. The series is described as follows: Antibacterial activity against methicillin resistant Staphylococcus aureus USA400 assessed as reduction in bacterial cell growth incubated for 18 to 20 hrs by broth microdilution method. Format: functional. On the technique in general: In broth dilution the organism is exposed to a series of concentrations in liquid medium.
A word on the MIC: it is the least concentration at which growth counts as inhibited. Regarding `C/C(=N\NC(=N)N)c1sc(-c2ccc(C#Cc3ccccc3[N+](=O)[O-])cc2)nc1C`, the MIC was more than 64 µg/mL.

In the case of `COC(=O)c1ccc(C#Cc2ccc(-c3nc(C)c(/C(C)=N/NC(=N)N)s3)cc2)c(C)c1`, the MIC was more than 64 µg/mL.

`C/C(=N\NC(=N)N)c1sc(-c2ccc(C#Cc3ccc(C(N)=O)cc3)cc2)nc1C`: the MIC is more than 64 µg/mL.

On to `C/C(=N\NC(=N)N)c1sc(-c2ccc(C#Cc3ccncc3)cc2)nc1C`, for which the MIC is more than 64 µg/mL.

As for `C/C(=N\NC(=N)N)c1sc(-c2ccc(C#Cc3cc(O)ccc3C)cc2)nc1C`, the minimal inhibitory concentration (MIC) was more than 64 µg/mL.

As to `C/C(=N\NC(=N)N)c1sc(-c2ccc(C#Cc3ccc(C(N)=S)cc3)cc2)nc1C`, the minimal inhibitory concentration (MIC) amounted to 64 µg/mL (≈ 148 µM).

Consider `C/C(=N\NC(=N)N)c1sc(-c2ccc(C#Cc3ccc(C(=O)O)c(C)c3)cc2)nc1C`, for which the MIC is more than 64 µg/mL.

For `C/C(=N\NC(=N)N)c1sc(-c2ccc(C#Cc3ccc(C)cc3)cc2)nc1C`, the minimal inhibitory concentration (MIC) stood at 32 µg/mL (≈ 82.6 µM).

As for `C/C(=N\NC(=N)N)c1sc(-c2ccc(C#Cc3ccccn3)cc2)nc1C`, the MIC amounted to 32 µg/mL (≈ 85.5 µM).

For the molecule `C/C(=N\NC(=N)N)c1sc(-c2ccc(C#Cc3cccc([N+](=O)[O-])c3)cc2)nc1C`, the minimal inhibitory concentration (MIC) came to 64 µg/mL (≈ 153 µM).

With `C/C(=N\NC(=N)N)c1sc(-c2ccc(C#Cc3ccccc3O)cc2)nc1C`, the MIC is more than 64 µg/mL.

Regarding `C/C(=N\NC(=N)N)c1sc(-c2ccc(C#Cc3csc(C)c3C)cc2)nc1C`, the MIC stood at 16 µg/mL (≈ 39.3 µM).

For the molecule `CCOC(=O)C#Cc1ccc(-c2nc(C)c(/C(C)=N/NC(=N)N)s2)cc1`, the minimum inhibitory concentration (MIC) was more than 64 µg/mL.

Turning to `C/C(=N\NC(=N)N)c1sc(-c2ccc(C#Cc3ncccn3)cc2)nc1C`, the MIC was more than 64 µg/mL.

In the case of `COc1ccccc1C#Cc1ccc(-c2nc(C)c(/C(C)=N/NC(=N)N)s2)cc1`, the minimal inhibitory concentration (MIC) amounted to 16 µg/mL (≈ 39.7 µM).

With `COc1cccc(C#Cc2ccc(-c3nc(C)c(/C(C)=N/NC(=N)N)s3)cc2)c1`, the MIC is 4 µg/mL (≈ 9.91 µM).

`C/C(=N\NC(=N)N)c1sc(-c2ccc(C#Cc3cccc(N)c3)cc2)nc1C`: the minimal inhibitory concentration (MIC) came to 4 µg/mL (≈ 10.3 µM).

Turning to `C/C(=N\NC(=N)N)c1sc(-c2ccc(C#Cc3ccsc3)cc2)nc1C`, the minimum inhibitory concentration (MIC) was more than 64 µg/mL.

As to `C/C(=N\NC(=N)N)c1sc(-c2ccc(C#Cc3ccoc3)cc2)nc1C`, the minimum inhibitory concentration (MIC) was determined as 4 µg/mL (≈ 11 µM).

As to `COC(=O)c1cccc(C#Cc2ccc(-c3nc(C)c(/C(C)=N/NC(=N)N)s3)cc2)c1`, the MIC was determined as 32 µg/mL (≈ 74.2 µM).

As for `C/C(=N/NC(=N)N)c1ccc(C#Cc2ccc(-c3nc(C)c(/C(C)=N/NC(=N)N)s3)cc2)cc1`, the MIC was more than 64 µg/mL.

For `COC(=O)c1ccccc1C#Cc1ccc(-c2nc(C)c(/C(C)=N/NC(=N)N)s2)cc1`, the minimal inhibitory concentration (MIC) was found to be 16 µg/mL (≈ 37.1 µM).

Turning to `C/C(=N\NC(=N)N)c1sc(-c2ccc(C#Cc3ccccc3N)cc2)nc1C`, the MIC is more than 64 µg/mL.

On to `C/C(=N\NC(=N)N)c1sc(-c2ccc(C#Cc3cncnc3)cc2)nc1C`, for which the MIC was more than 64 µg/mL.

Test system in the next series: not listed separately
The series is described as follows: Solubility of compound in PBS after 2 hrs by turbidity based absorbance analysis. Format: physicochemical.
The term solubility (kinetic) denotes the concentration staying in solution when a stock, usually in DMSO, is diluted into the medium. Molecule `C/C(=N\NC(=N)N)c1sc(-c2ccc(C#CC3CCCCC3)cc2)nc1C` showed a kinetic solubility at 2 h of 2.7 µM (≈ 1.02 µg/mL).

`CCCCc1ccc(-c2nc(C)c(/C(C)=N/NC(=N)N)s2)cc1` showed a kinetic solubility at 2 h of 65 µM (≈ 21.4 µg/mL).
